Where “and” joins values, the source holds several entries; their conditions need not be identical. Identical values can stand only once. Like-named read-outs stand apart in the source and are kept apart here. Marks after values point to notes of the source that are not given here. Values belong to the compound of their own block, whether it stands above or below them.
Assays:
CSF-1 [1] = assay: Plasma CSF-1 in rats dosed 4 days, Examples 3 and 4 (mouse CSF-1 ELISA); type: in vivo, rat; conditions: for CSF-1 levels elevated: vs vehicle; for Plasma CSF-1, pg/ml, Mean / CSF-1, pg/ml, Mean (SEM): group mean; for Plasma CSF-1, pg/ml, Mean / Plasma CSF-1, pg/ml: vehicle mean 124; for Plasma CSF-1, pg/ml / CSF-1, pg/ml (plasma): individual animals; for CSF-1, pg/ml, Mean (SEM) / CSF-1, pg/ml (plasma): vehicle mean 127
Experimental: (§1) Pharmacodynamic activity in rats was determined to identify appropriate doses for efficacy studies. Circulating CSF-1 is cleared by sinusoidal macrophages when bound and internalized by FMS in a process that is partly dependent on FMS kinase activity. CSF-1 levels rise when FMS is inhibited, or when FMS inhibition reduces the number/function of macrophages. Uterine macrophages are short-lived and FMS-dependent. Quantitation of uterine macrophage density and plasma CSF-1 levels thereby provided pharmacodynamic endpoints measurable in rats following 4 days of dosing.
(§2) […] On the fifth day, a final dose was given and the animals were sacrificed 2 hrs later. Rats were euthanized using CO2 asphyxiation and exsanguinated via cardiac puncture. An aliquot of blood ([…]) was transferred to an EDTA tube and processed for plasma and for determination of plasma compound and CSF-1 biomarker levels.

[2] = Plasma compound levels in rats dosed 4 days, Examples 3 and 4; type: in vivo, rat; conditions: for concentration at 2 h: rat, plasma
uterine macrophages = assay: Uterine ED1 stained area (uterine macrophage density) in rats dosed 4 days, Examples 3 and 4; type: in vivo, rat; conditions: for Uterine macrophages depleted: vs vehicle; for Uterine ED1 area/HPF, Mean / Uterine ED1 area/HPF, Mean (SEM): group mean; for Uterine ED1 area/HPF: individual animals
Experimental: as §1, §2
Spleens, livers and uteri (without ovaries) were isolated and weighed and uteri were fixed in formalin. Uteri sections were stained for ED1 and ED-1 stained area (arbitrary units) at 200× magnification was determined using Image-Pro Plus software.

CSF-1 [3] = assay: Plasma CSF-1 biomarker in rats, Example 2 (po bid 5 days); type: in vivo, rat; conditions: 5 mg/kg po bid, 5 consecutive days
Experimental: (§3) Groups of female Sprague Dawley rats (n=5) were orally administered 5 or 15 mg/kg of COMPOUND 2 or 40 mg/kg COMPOUND 1 twice per day for 5 consecutive days to characterize compound tolerability. Additional groups of rats, treated with vehicle or 40 mg/kg COMPOUND 1, were terminated one hour after the a.m. dose on Days 1 and 3 for interim analysis of various parameters. Post-mortem analysis of all treated animals included standard necropsy with liver histology evaluation as well as standard hematology and serology. None of the animals were found dead or were euthanized (moribund) prior to scheduled termination. None of the treatments affected body weight or the organ:body weight ratio of selected organs (i.e., liver, thymus, spleen & uterus). […] Both compounds, at the highest dose tested, decreased the number of macrophages in the uterus (up to ˜60% for COMPOUND 2) on Day 5 however, this parameter was highly variable.
On Day 0, the rats were ear tagged, randomized into the treatment groups (Groups 1 & 4: n=15, Groups 2 & 3: n=5), weighed and treated (po, bid) with either vehicle (20% HPbCD) or the test articles as delineated in Table 2 (Allocation of Treatment Groups).
(§4) On Days 1 & 3, one hour after a.m. dose, five rats from Groups 1 and 4 were euthanized using CO2 asphyxiation and exsanguinated via cardiac puncture. Blood samples (˜500 μL) were transferred to separate ethylenediaminetetraacetic acid (EDTA) microtainers and a complete blood count (CBC) was conducted using the Advia 120 Hematology System (Bayer Diagnostics, Tarrytown, N.Y.). Additional blood samples were transferred to separate microtainers (with or without anticoagulant) and processed for biomarker (i.e., MCSF-1) and serologic (i.e., AST/ALT) analysis. The liver and thymus were weighed and discarded. The spleens were weighed and zap-frozen and the uteri (without ovaries attached) were weighed and fixed in 10% buffered formalin. The macrophage content of the uterus was determined immunohistochemically using a macrophage-specific (ED-1) antibody.
On Day 5, rats were euthanized using carbon dioxide and exsanguinated via cardiac puncture. Blood samples (˜500 μL) were collected and processed as described above for CBC, biomarker analysis and serology. The liver, spleen, thymus and uterus (without ovaries attached) were isolated, weighed and fixed in buffered formalin. The right knee with femur attached was isolated, trimmed and fixed in formalin. The left femur was isolated for determination of bone marrow cell counts. Liver histopathology was also conducted.
Differences between treated and control groups were analyzed statistically by ANOVA with a Dunnett's Multiple Comparison post-test. (p value; *:<0.05, **:<0.01).

[4] = tested on: ED-1 positive macrophages in the uterus; assay: Macrophage content of the uterus (ED-1 immunohistochemistry) in rats, Example 2; type: in vivo, rat; conditions: Day 5
Experimental: as §3, §4
On Day 5, rats were euthanized using carbon dioxide and exsanguinated via cardiac puncture. […]
Differences between treated and control groups were analyzed statistically by ANOVA with a Dunnett's Multiple Comparison post-test. […]

[5] = Tolerability in rats, Example 2; type: in vivo; conditions: 5 or 15 mg/kg COMPOUND 2 or 40 mg/kg COMPOUND 1, po bid, 5 consecutive days
Experimental: as §3, with “variable. […]” for “variable.”
On Days 1 & 3, one hour after a.m. dose, five rats from Groups 1 and 4 were euthanized using CO2 asphyxiation and exsanguinated via cardiac puncture. […] The macrophage content of the uterus was determined immunohistochemically using a macrophage-specific (ED-1) antibody. […]

[6] = Plasma compound levels in rats dosed 4 days, Examples 3 and 4; type: in vivo, rat; conditions: 2 hrs after final dose, individual animals; for concentration at 2 h: female, Sprague Dawley, rat, plasma, oral
Experimental: Method: Female Sprague Dawley Rats (150 to 200 g BW) from Charles River were administered vehicle or COMPOUND 3 at 10 and 40 mg/kg p.o. bid for 4 days. On the fifth day, a final dose was given and the animals were sacrificed 2 hrs later. Rats were euthanized using CO2 asphyxiation and exsanguinated via cardiac puncture. An aliquot of blood ([…]) was transferred to an EDTA tube and processed for plasma and for determination of plasma compound and CSF-1 biomarker levels.

[7] = 10 mpk, dosed 4 days, vehicle mean 2057
[8] = 20 mpk, dosed 4 days, vehicle mean 2057
[9] = 50 mpk, dosed 4 days, vehicle mean 2057
[10] = 10 mg/kg p.o. bid 4 days, vehicle mean 9808
[11] = 40 mg/kg p.o. bid 4 days, vehicle mean 9808

Plasma compound, ng/ml, Mean ([2]; 10 mpk, dosed 4 days, 2 hours after last dose, group mean): 1414 (186) ng/ml
Plasma compound, ng/ml, Mean ([2]; 20 mpk, dosed 4 days, 2 hours after last dose, group mean): 2636 (172) ng/ml
Plasma compound, ng/ml, Mean ([2]; 50 mpk, dosed 4 days, 2 hours after last dose, group mean): 6612 (881) ng/ml
concentration at 2 h ([2]; 10 mpk, dosed 4 days, 2 hours after last dose, group mean, read-out: Plasma compound, ng/ml, Mean): 1410 ng/mL
concentration at 2 h ([2]; 10 mpk, dosed 4 days, 2 hours after last dose, individual animals, read-out: Plasma compound): 1070 ng/mL
concentration at 2 h ([2]; 20 mpk, dosed 4 days, 2 hours after last dose, individual animals, read-out: Plasma compound): 2510 ng/mL
concentration at 2 h ([2]; 50 mpk, dosed 4 days, 2 hours after last dose, group mean, read-out: Plasma compound, ng/ml, Mean): 6610 ng/mL
concentration at 2 h ([2]; 50 mpk, dosed 4 days, 2 hours after last dose, individual animals, read-out: Plasma compound): 5670 ng/mL
concentration at 2 h ([2]; dosed 4 days, 2 hours after last dose, group mean, read-out: Plasma compound, ng/ml, Mean): 2640 ng/mL
SMILES: CC1(C)CC=C(c2nc(C3CC(C)(C)OC(C)(C)C3)ccc2NC(=O)c2ncc(C#N)[nH]2)CC1 [COMPOUND 4]
CSF-1 levels elevated (CSF-1 [1]; 10 mpk, dosed 4 days): 28%
Plasma CSF-1, pg/ml, Mean (CSF-1 [1]; 10 mpk, dosed 4 days, p < 0.05 vs. Vehicle): 159* pg/ml
Plasma CSF-1, pg/ml (CSF-1 [1]; 10 mpk, dosed 4 days): 152 pg/mL and 165 pg/mL and 139 pg/mL and 157 pg/mL and 184 pg/mL
CSF-1 levels elevated (CSF-1 [1]; 20 mpk, dosed 4 days): 79%
Plasma CSF-1, pg/ml, Mean (CSF-1 [1]; 20 mpk, dosed 4 days, p < 0.005 vs. Vehicle): 211** pg/ml
Plasma CSF-1, pg/ml (CSF-1 [1]; 20 mpk, dosed 4 days): 211 pg/mL and 163 pg/mL and 196 pg/mL and 238 pg/mL and 249 pg/mL
CSF-1 levels elevated (CSF-1 [1]; 50 mpk, dosed 4 days): 363%
Plasma CSF-1, pg/ml, Mean (CSF-1 [1]; 50 mpk, dosed 4 days, p < 0.005 vs. Vehicle): 574** pg/ml
Plasma CSF-1, pg/ml (CSF-1 [1]; 50 mpk, dosed 4 days): 540 pg/mL and 696 pg/mL and 506 pg/mL and 585 pg/mL and 541 pg/mL
Dose with a threshold level of activity for CSF-1 elevation and uterine macrophage depletion (CSF-1 [1]; rats dosed 4 days): 10 mg/kg
Plasma compound ([2]; 10 mpk, dosed 4 days, 2 hours after last dose, individual animals): 968 ng/mL and 1560 ng/mL and 1790 ng/mL and 1680 ng/mL
Plasma compound ([2]; 20 mpk, dosed 4 days, 2 hours after last dose, individual animals): 2670 ng/mL and 2320 ng/mL and 2470 ng/mL and 3210 ng/mL
Plasma compound ([2]; 50 mpk, dosed 4 days, 2 hours after last dose, individual animals): 6090 ng/mL and 4800 ng/mL and 9390 ng/mL and 7110 ng/mL
Uterine macrophages depleted (uterine macrophages; 10 mpk, dosed 4 days): 27%
Uterine ED1 area/HPF, Mean (uterine macrophages; [7]): 1501 arbitrary units
Uterine ED1 area/HPF (uterine macrophages; [7]): 1003 arbitrary units and 1233 arbitrary units and 1174 arbitrary units and 1021 arbitrary units and 3075 arbitrary units
Uterine macrophages depleted (uterine macrophages; 20 mpk, dosed 4 days): 28%
Uterine ED1 area/HPF, Mean (uterine macrophages; [8]): 1476 arbitrary units
Uterine ED1 area/HPF (uterine macrophages; [8]): 1419 arbitrary units and 1995 arbitrary units and 1164 arbitrary units and 1560 arbitrary units and 1244 arbitrary units
Uterine macrophages depleted (uterine macrophages; 50 mpk, dosed 4 days): 44%
Uterine ED1 area/HPF, Mean (uterine macrophages; [9]): 1149 arbitrary units
Uterine ED1 area/HPF (uterine macrophages; [9]): 681 arbitrary units and 1431 arbitrary units and 2955 arbitrary units and 585 arbitrary units and 94 arbitrary units

SMILES: Cc1ncc(-c2c(C3=CCCCC3)c3cc(C#N)ccc3[nH]c2=O)[nH]1 [COMPOUND 2]
Effect on plasma concentrations of CSF-1 (CSF-1 [3]): failed to significantly affect plasma concentrations of CSF-1
Effect on macrophage content of the uterus ([4]; highest dose tested (COMPOUND 2 15 mg/kg, COMPOUND 1 40 mg/kg po bid), highly variable): significant effect
Decrease in number of ED-1 positive macrophages per field in the uterus ([4]; up to, dose dependent (5 and 15 mg/kg po bid)): ~60%
Effect on appearance, behavior, body weight or organ:body weight ratio (liver, spleen, thymus) [5]: did not have an observable effect

Compound, ng/ml (plasma) ([6]; 10 mg/kg p.o. bid 4 days): 2080 ng/mL and 2800 ng/mL
Compound, ng/ml (plasma) ([6]; 40 mg/kg p.o. bid 4 days): 5060 ng/mL and 5730 ng/mL
concentration at 2 h ([6]; 10 mg/kg, 10 mg/kg p.o. bid 4 days): 2730 ng/mL
concentration at 2 h ([6]; 40 mg/kg, 40 mg/kg p.o. bid 4 days): 5320 ng/mL
concentration at 2 h ([2]; female, Sprague Dawley, oral, 10 mg/kg, 10 mg/kg p.o. bid 4 days, 2 hrs after final dose, group mean, read-out: Compound, ng/ml, Mean (SEM)): 2540 ng/mL
concentration at 2 h ([2]; female, Sprague Dawley, oral, 40 mg/kg, 40 mg/kg p.o. bid 4 days, 2 hrs after final dose, group mean, read-out: Compound, ng/ml, Mean (SEM)): 5370 ng/mL
SMILES: CONC(=O)c1cn(-c2ccc3c(c2)CCC3)c2nc(Nc3ccc(C4CCN(C)CC4)cc3)ncc2c1=O [COMPOUND 3]
CSF-1 levels elevated (CSF-1 [1]; 10 mg/kg p.o. bid 4 days): 4.5 fold
CSF-1, pg/ml, Mean (SEM) (CSF-1 [1]; 10 mg/kg p.o. bid 4 days): 570 pg/mL
CSF-1, pg/ml (plasma) (CSF-1 [1]; 10 mg/kg p.o. bid 4 days): 651 pg/mL and 482 pg/mL and 577 pg/mL
CSF-1 levels elevated (CSF-1 [1]; 40 mg/kg p.o. bid 4 days): 5.5 fold
CSF-1, pg/ml, Mean (SEM) (CSF-1 [1]; 40 mg/kg p.o. bid 4 days): 698 pg/mL
CSF-1, pg/ml (plasma) (CSF-1 [1]; 40 mg/kg p.o. bid 4 days): 548 pg/mL and 746 pg/mL and 801 pg/mL
Uterine macrophages depleted (uterine macrophages; 10 mg/kg p.o. bid 4 days): 51%
Uterine ED1 area/HPF, Mean (SEM) (uterine macrophages; [10]): 4855 arbitrary units
Uterine ED1 area/HPF (uterine macrophages; [10]): 4919 arbitrary units and 7609 arbitrary units and 2037 arbitrary units
Morphology of uterine macrophages (ED-1 staining) (uterine macrophages; 40 mg/kg p.o. bid 4 days): did not have the normal reticulated morphology
Uterine macrophages depleted (uterine macrophages; 40 mg/kg p.o. bid 4 days): 81%
Uterine ED1 area/HPF, Mean (SEM) (uterine macrophages; [11]): 1836 arbitrary units
Uterine ED1 area/HPF (uterine macrophages; [11]): 929 arbitrary units and 1721 arbitrary units and 2858 arbitrary units

Source: US20090148883A1, “BIOMARKER FOR ASSESSING RESPONSE TO FMS TREATMENT” (priority 2007, published 2009)
